This is an account of results in US11673892B2, “Bicyclic compounds for use as RIP1 kinase inhibitors” (Genentech, Inc., priority 2017, dated 2023).

This test deals with T1, human RIP1 kinase domain (2-375) (Homo sapiens, UniProt Q13546).
T1 construct: Purified human RIP1 kinase domain (2-375) (50 nM); made in house; host or cells: baculovirus-infected insect cells
T1 sequence (Q13546 2-375): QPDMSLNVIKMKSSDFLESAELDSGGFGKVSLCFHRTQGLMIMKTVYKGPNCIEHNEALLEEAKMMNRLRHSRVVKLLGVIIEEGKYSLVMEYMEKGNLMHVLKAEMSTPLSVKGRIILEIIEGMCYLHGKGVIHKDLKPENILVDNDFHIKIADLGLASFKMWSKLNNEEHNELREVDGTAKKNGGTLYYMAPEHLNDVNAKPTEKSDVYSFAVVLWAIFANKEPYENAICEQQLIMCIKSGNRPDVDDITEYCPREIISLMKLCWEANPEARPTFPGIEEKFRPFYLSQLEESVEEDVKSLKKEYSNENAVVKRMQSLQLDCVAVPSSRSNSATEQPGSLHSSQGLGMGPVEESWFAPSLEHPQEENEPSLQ
The experiment in a line: RIP1 kinase inhibition biochemical assay (Transcreener ADP, fluorescence polarization). The conditions noted are these: Ki app (Morrison tight-binding fit); 50 nM enzyme, 50 uM ATP, 2 hours incubation. The procedure: RIP1 Kinase Inhibition Assays (Biochemical Assay)
The compounds of the present invention were tested for their capacity to inhibit RIP1K activity as described below.
The ability of the receptor interacting protein kinase (RIPK1) to catalyze the hydrolysis of adenosine-5′-triphosphate (ATP) is monitored using the Transcreener ADP (adenosine-5′-diphosphate) assay (BellBrook Labs). Purified human RIP1 kinase domain (2-375) (50 nM) derived from a baculovirus-infected insect cell expression system is incubated with test compounds for 2 hours in 50 mM Hepes buffer (pH 7.5) containing 30 mM MgCl2, 1 mM dithiothreitol, 50 uM ATP, 0.002% Brij-35, and 0.5% dimethyl sulfoxide (DMSO). Reactions are quenched by the addition of 1× Bell Brooks Stop buffer B (20 mM Hepes (ph7.5), 40 mM ethylenediaminetetraacetic acid and 0.02% Brij-35) containing an additional 12 mM EDTA and 55 ug/mL ADP2 antibody and 4 nM ADP-AlexaFluor® 633 tracer. The tracer bound to the antibody is displaced by the ADP generated during the RIP1K reaction, which causes a decrease in fluorescence polarization that is measured by laser excitation at 633 nm with a FP microplate reader M1000. Fractional activity was plotted against test article concentration. Using Genedata Screener software (Genedata; Basel, Switzerland), the data were fit to the tight-binding apparent inhibition constant (Ki^app) Morrison equation [Williams, J. W. and Morrison, J. F. (1979) The kinetics of reversible tight-binding inhibition. Methods Enzymol 63: 437-67]. The following equation was used to calculate fractional activity and Ki^app:
[formula] where [E]T and [I]T are the total concentrations of active enzyme and test article, respectively.
Exemplary compounds of the present invention are provided in Table 1 along with their physiochemical characterization and in vitro RIP1 kinase inhibitory activity data. “Method” in the first column of each table refers to the synthetic method(s) used to prepare each compound as shown in the Examples above. In certain examples, chiral column retention times (min) are provided for certain stereoisomers. Unless otherwise specified, the stereochemistry shown in each structure represents relative configuration of a single stereoisomer, and absolute configuration (i.e., “R” and/or “S”) is arbitrarily assigned. In some embodiments, where the Method is described to include the separation of stereoisomers, a single stereoisomer of a compound of Table 1 is provided.
For orientation: Polarisation of emitted light reports the rotation of a fluorescent probe.

On to `CCOC(=O)[C@@H]1C[C@H]1c1nc2n(n1)[C@H](c1ccccc1)C[C@@H]2F` (mixture of isomers) [Example 21, ethyl rac-(1R,2R)-2-[(5S,7S)-7-fluoro-5-phenyl-6,7-dihydro-5H-pyrrolo[1,2-b][1,2,4]triazol-2-yl]cyclopropanecarboxylate], for which the Ki came to 100 nM. Take `N#C[C@H]1C[C@@H]1C(F)(F)c1nc2n(n1)[C@H](c1ccccc1)C[C@@H]2F` (mixture of isomers) [Example 113, rac-(1S,2S)-2-[difluoro-[(5S,7S)-7-fluoro-5-phenyl-6,7-dihydro-5H-pyrrolo[1,2-b][1,2,4]triazol-2-yl]methyl]cyclopropane carbonitrile]: the Ki was found to be 4.8 nM.

With `CCC(F)(F)c1nc2n(n1)C(c1ccccc1)CC2F` (racemic) [Example 2, Cis-2-(1,1-difluoropropyl)-7-fluoro-5-phenyl-6,7-dihydro-5H-pyrrolo[1,2-b][1,2,4]triazole], the Ki was 41 nM. Compound `F[C@@H]1C[C@H](c2ccccc2)n2nc(C(F)(F)C3CC3)nc21` (racemic) [Example 5] displayed a Ki of 27 nM.

Take `CC[C@@H](F)c1nc2n(n1)[C@H](c1ccccc1)C[C@@H]2F` (racemic) [Example 7, rac-(5S,7S)-7-fluoro-5-phenyl-2-[rac-(1R)-1-fluoropropyl]-6,7-dihydro-5H-pyrrolo[1,2-b][1,2,4]triazole]: the Ki amounted to 4 nM. Next, `CC[C@H](F)c1nc2n(n1)[C@H](c1ccccc1)C[C@@H]2F` (racemic) [Example 8, rac-(5S,7S)-7-fluoro-5-phenyl-2-[rac-(1S)-1-fluoropropyl]-6,7-dihydro-5H-pyrrolo[1,2-b][1,2,4]triazole]: 14 nM. Compound `CC(C)(C)C(F)(F)c1nc2n(n1)C(c1ccccc1)CC2F` (racemic) [Example 9, Cis-2-(1,1-difluoro-2,2-dimethyl-propyl)-7-fluoro-5-phenyl-6,7-dihydro-5H-pyrrolo[1,2-b][1,2,4]triazole] came in with a Ki of 68 nM. With `CCCc1nc2n(n1)[C@@H](c1ccccc1)C[C@H]2F` (racemic) [Example 10, Cis-(5S,7S)-7-fluoro-5-phenyl-2-propyl-6,7-dihydro-5H-pyrrolo[1,2-b][1,2,4]triazole] the figure was 78 nM; with `FC1CC(c2ccccc2)n2nc(C3CC3)nc21` (racemic) [Example 11, Cis-2-cyclopropyl-7-fluoro-5-phenyl-6,7-dihydro-5H-pyrrolo[1,2-b][1,2,4]triazole], 320 nM; with `FC1CC(c2ccccc2)n2nc(C(F)(F)F)nc21` (racemic) [Example 12, Cis-7-fluoro-5-phenyl-2-(trifluoromethyl)-6,7-dihydro-5H-pyrrolo[1,2-b][1,2,4]triazole], 130 nM. With `N#CC1CC1c1nc2n(n1)[C@H](c1ccccc1)C[C@@H]2F` (mixture of isomers) [Example 16, Trans-2-[(5S,7S)-7-fluoro-5-phenyl-6,7-dihydro-5H-pyrrolo[1,2-b][1,2,4]triazol-2-yl]cyclopropanecarbonitrile] the figure was 51 nM; with `F[C@@H]1C[C@H]1C(F)(F)c1nc2n(n1)[C@H](c1ccccc1)C[C@@H]2F` (racemic) [Example 23, (5S,7S)-2-[difluoro-(rac-(1R,2R)-2-fluorocyclopropyl)methyl])-7-fluoro-5-phenyl-6,7-dihydro-5H-pyrrolo[1,2-b][1,2,4]triazole], 4 nM; with `COC[C@@H]1C[C@H]1c1nc2n(n1)[C@H](c1ccccc1)C[C@@H]2F` (racemic) [Example 24, (S,7S)-7-fluoro-5-phenyl-2-[rac-(1R,2R)-2-(methoxymethyl)cyclopropyl]-6,7-dihydro-5H-pyrrolo[1,2-b][1,2,4]triazole], 910 nM.

`N#CCOCc1nc2n(n1)[C@H](c1ccccc1)C[C@@H]2F` (racemic) [Example 51, 2-[(7-fluoro-5-phenyl-6,7-dihydro-5H-pyrrolo[1,2-b][1,2,4]triazol-2-yl)methoxy]acetonitrile] had a Ki of 120 nM.

On to `N#CC1CC(=Cc2nc3n(n2)[C@H](c2ccccc2)C[C@@H]3F)C1` (mixture of isomers) [Example 55, 3-[[rac-(5S,7S)-7-fluoro-5-phenyl-6,7-dihydro-5H-pyrrolo[1,2-b][1,2,4]triazol-2-yl]methylene]cyclobutanecarbonitrile], for which the Ki was 130 nM. For the compound `F[C@H]1C[C@@H](c2ccccc2)n2nc(-n3ncc4ccccc43)nc21` (racemic) [Example 73, 1-[rac-(5S,7S)-7-fluoro-5-phenyl-6,7-dihydro-5H-pyrrolo[1,2-b][1,2,4]triazol-2-yl]indazole], the Ki was 6.2 nM. Next, `CC(=O)c1cnn(-c2nc3n(n2)[C@H](c2ccccc2)C[C@@H]3F)c1` (racemic) [Example 78, 1-[1-[rac-(5S,7S)-7-fluoro-5-phenyl-6,7-dihydro-5H-pyrrolo[1,2-b][1,2,4]triazol-2-yl]pyrazol-4-yl]ethanone]: 130 nM; `F[C@H]1C[C@@H](c2ccccc2)n2nc(-n3nnc4cc(Cl)ccc43)nc21` (racemic) [Example 82, 5-chloro-1-[rac-(5S,7S)-7-fluoro-5-phenyl-6,7-dihydro-5H-pyrrolo[1,2-b][1,2,4]triazol-2-yl]benzotriazole]: 9.2 nM. With `N#Cc1ccc2c(c1)nnn2-c1nc2n(n1)[C@H](c1ccccc1)C[C@@H]2F` (racemic) [Example 85, 1-[rac-(5S,7S)-7-fluoro-5-phenyl-6,7-dihydro-5H-pyrrolo[1,2-b][1,2,4]triazol-2-yl]benzotriazole-5-carbonitrile] the figure was 19 nM; with `F[C@H]1C[C@@H](c2ccccc2)n2nc(-n3nnc4c3CCCC4)nc21` (racemic) [Example 86, 1-(rac-(5S,7S)-7-fluoro-5-phenyl-6,7-dihydro-5H-pyrrolo[1,2-b][1,2,4]triazol-2-yl]-4,5,6,7-tetrahydrobenzotriazole], 18 nM; with `F[C@H]1C[C@@H](c2ccccc2)n2nc(-n3ncc4ccncc43)nc21` (racemic) [Example 87, 1-[rac-(5S,7S)-7-fluoro-5-phenyl-6,7-dihydro-5H-pyrrolo[1,2-b][1,2,4]triazol-2-yl]pyrazolo[3,4-c]pyridine], 160 nM. `Cc1ccc2c(c1)nnn2-c1nc2n(n1)[C@H](c1ccccc1)C[C@@H]2F` (racemic) [Example 88, 5-methyl-1-[rac-(5S,7S)-7-fluoro-5-phenyl-6,7-dihydro-5H-pyrrolo[1,2-b][1,2,4]triazol-2-yl]benzotriazole]: the Ki amounted to 45 nM. With `N#CCc1nc2n(n1)[C@H](c1ccccc1)C[C@@H]2F` (racemic) [Example 102, 2-[rac-(5S,7S)-7-fluoro-5-phenyl-6,7-dihydro-5H-pyrrolo[1,2-b][1,2,4]triazol-2-yl]acetonitrile] the figure was 730 nM.

In the case of `CC(C)(C#N)c1nc2n(n1)[C@H](c1ccccc1)C[C@@H]2F` (racemic) [Example 103, 2-[rac-(5S,7S)-7-fluoro-5-phenyl-6,7-dihydro-5H-pyrrolo[1,2-b][1,2,4]triazol-2-yl]-2-methyl-propanenitrile], the Ki was 220 nM. With `F[C@H]1C[C@@H](c2ccccc2)n2nc(C(F)(F)C3CC3)nc21` (single isomer, unassigned) [Example 13] the figure was 3 nM; with `CCCc1nc2n(n1)[C@H](c1ccccc1)C[C@@H]2F` (single isomer, unassigned) [Example 14], 28 nM. Compound `F[C@@H]1C[C@H](c2ccccc2)n2nc(CCC(F)(F)F)nc21` (single isomer, unassigned) [Example 15] had a Ki of 1100 nM. The compound `CC1(C(F)(F)c2nc3n(n2)[C@H](c2ccccc2)C[C@@H]3F)COC1` (single isomer, unassigned) [Example 17] displayed a Ki of 34 nM.

As for `F[C@H]1C[C@@H](c2ccccc2)n2nc(CCC(F)(F)F)nc21` (single isomer, unassigned) [Example 18], the Ki was 12 nM. Next, `Cn1ccc(-c2nc3n(n2)[C@H](c2ccccc2)C[C@@H]3F)n1` (single isomer, unassigned) [Example 19]: 1100 nM.
